The source of these data is patent publication US4711958A, “Morpholine containing amino acid derivatives” (priority 1986, dated 1987).

Test [1] has as its target T1, renin (Homo sapiens, UniProt P00797).
T1 sequence (P00797 67-406): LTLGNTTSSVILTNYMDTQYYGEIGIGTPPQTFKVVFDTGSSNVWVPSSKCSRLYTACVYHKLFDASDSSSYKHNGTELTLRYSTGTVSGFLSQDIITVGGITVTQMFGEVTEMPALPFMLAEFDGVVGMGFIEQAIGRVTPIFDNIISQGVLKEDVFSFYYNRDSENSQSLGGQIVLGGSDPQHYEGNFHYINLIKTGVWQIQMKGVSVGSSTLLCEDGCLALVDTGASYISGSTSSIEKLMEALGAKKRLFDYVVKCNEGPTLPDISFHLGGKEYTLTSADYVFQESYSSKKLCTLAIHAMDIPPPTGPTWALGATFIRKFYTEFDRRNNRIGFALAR
The experiment in a line: Renin inhibitory effect in a human high renin plasma. In kind it is biochemical. Also noted: 500 μl of human high renin plasma; from tissue; host or cells: human high renin plasma. To be noted: pH 7.0, 37° C., 60 minutes, read-out: IC50 (molar concentration producing a 50% inhibition). Here is the method: Renin inhibitory effect in a human high renin plasma
A mixture of 350 μl of a 0.5 M phosphate buffer (pH 7.0) containing 14 mM EDTA.2Na and a 0.3% neomycin sulfate, 50 μl of a 20 mM L-phenylalanyl-L-alanyl-L-proline as an angiotensin converting enzyme inhibitor and 100 μl of dimethyl sulfoxide solution containing an amino acid derivative of the present invention was added to 500 μl of human high renin plasma. Two hundred μl of the mixture was placed on an ice bath, at 4° C., and remaining mixture (800 μl ) was incubated for 60 minutes at 37° C. on a water bath. Two hundred μl of the incubated remaining mixture was chilled immediately on an ice bath, and the amount (A) of angiotensin I produced was determined by radioimmunoassay using renin riabead kit (DAINABOT).
The amount (B) of angiotensin I in the mixture placed on an ice bath at 4° C. was also determined by radioimmunoassay.
As a control, the same procedure as above was carried out by using 100 μl of dimethyl sulfoxide alone in place of 100 μl of dimethyl sulfoxide solution containing an amino acid compound of the present invention.
The net amount was estimated as the difference between A and B.
The inhibitory effect was calculated by the following equation. [formula]

For test [2], the target named is T1, renin. Put plainly: Inhibitory effect on human renin-sheep renin substrate reaction system in vitro. Format: biochemical. As to conditions: pH 7.4, 37° C., 15 minutes, read-out: IC50 (molar concentration producing a 50% inhibition). The protocol: Inhibitory effect on human renin-sheep renin substrate reaction system in vitro
The mixture was incubated for 15 minutes on a water bath at 37° C., and the reaction mixture was allowed to stand for 5 minutes on a water bath at 100° C. to stop the reaction. After cooling, 200 μl of the solution was taken up and the amount of angiotensin I produced by the addition of renin was determined by radioimmunoassay using renin riabead kit (DAINABOT).
The inhibitory effect was calculated by the following equation.
As a control, the same procedure as above was carried out by using 50 μl of dimethyl sulfoxide alone in place of the 50 μl of dimethyl sulfoxide solution containing an amino acid compound of the present invention. [formula]

Test [3] has as its system plasma renin. The experiment in a line: Renin inhibitory effect in plasma on common marmoset (high renin state, oral). Format: in vivo. As to conditions: oral 30 mg/kg. Here is the method: Renin inhibitory effect in plasma on common marmoset
The experiment was carried out by using common marmoset as described in K. G. Hofbauer et al., Clinical and Experimental hypertension, Vol. A5, Nos. 7 & 8 (1983), pages 1237-1247.
Furosemide was administered orally three times to common marmoset having a lower salt diet at 15 mg per Kilogram per day every other day to create a high renin state. The experiment was carried out on the third day after the last furosemide dose.
Conscious female and male marmosets weighing 335 to 375 g were placed into small restraining chair, and by using a catheter into the femoral artery, blood collecting was carried out at intervals of 20, 40, 60, 120, 180 and 300 minutes.
Collected blood samples were centrifuged at 1200 g for 15 minutes at 4° C. Two hundred μl of the plasma was taken up and incubated for 60 minutes at 37° C., and the plasma renin activity was measured by radioimmunoassay using renin riabead kit (DAINABOT).
Compound A of this invention was dissolved in dilute hydrochloric acid, and administered orally at single dose of 30 mg/kg using catheter.

Test [4] is described as follows: Hypotensive effect in marmoset (high renin state, oral). Format: in vivo, common marmoset. To be noted: conscious male marmoset, oral 30 mg/kg, tail cuff, Control 89.3. Here is the method: Hypotensive effect in marmoset
The experiment was carried out by using common marmoset as described in K. G. Hofbauer et al., Clinical and Experimental Hypertension, Vol. A5, Nos. 7 & 8 (1983), pages 1237-1247.
Furosemide was administered orally three times to common marmoset at 15 mg per kilogram per day every other day to create a high renin state. Blood pressure of conscious marmoset was measured on the third day after the last furosemide dose.
A conscious male marmoset weighing 460 g was placed into small restraining chair. Blood pressure was measured on the tail cuff method using pretismograph. Compound C was dissolved in dilute hydrochloric acid, and administered orally at 30 mg/kg by using a catheter.

On to `CC(C)OC(=O)C(O)[C@H](CC1CCCCC1)NC(=O)[C@H](Cc1c[nH]cn1)NC(=O)C(CC(=O)N1CCOCC1)Cc1cccc2ccccc12` (mixture of isomers) [Compound A, (2RS, 3S)-3-{N-[2-(1-Naphthylmethyl)-3-(morpholinocarbonyl)propionyl]-L-histidyl)amino-4-cyclohexyl-2-hydroxybutyric acid isopropyl ester], for which the IC50 in test [1] came out at 10 nM; in test [2], 6.5 nM. Besides, the “Inhibition percent of plasma renin activity” value is recorded as 68.2% in test [3] (20 minutes after administration, 3 animals); 88.1% in test [3] (40 minutes after administration, 3 animals); 87.1% in test [3] (60 minutes after administration, 3 animals); 88.8% in test [3] (120 minutes after administration, 3 animals); 79.6% in test [3] (180 minutes after administration, 3 animals); 53.4% in test [3] (300 minutes after administration, 2 animals).
With `CC(C)CNC(=O)C(O)[C@H](CC1CCCCC1)NC(=O)[C@H](Cc1c[nH]cn1)NC(=O)C(CC(=O)N1CCOCC1)Cc1cccc2ccccc12` (mixture of isomers) [Compound B, (2RS, 3S)-3-{N-[2-(1-Naphthylmethyl)-3-(morpholinocarbonyl)propionyl]-L-histidyl}amino-4-cyclohexyl-2-hydroxy-N-isobutylbutyramide], the IC50 came out at 260 nM in test [1] and 290 nM in test [2].
With `O=C(N[C@@H](Cc1c[nH]cn1)C(=O)N[C@@H](CC1CCCCC1)C(O)C(=O)OC1CCCC1)C(CC(=O)N1CCOCC1)Cc1cccc2ccccc12` (mixture of isomers) [Compound C, (2RS, 3S)-3-{N-[2-(1-Naphthylmethyl)-3-(morpholinocarbonyl)propionyl]-L-histidyl)amino-4-cyclohexyl-2-hydroxybutyric acid cyclopentyl ester], the IC50 in test [1] came to 6.8 nM; in test [2] it was 2.5 nM. For the same compound, the Blood pressure in test [4] (0.5 hours after administration) is 78.0 mmHg; in test [4] (1 hour after administration), 73.3 mmHg; in test [4] (2 hours after administration) it was 66.0 mmHg; in test [4] (3 hours after administration), 71.0 mmHg; in test [4] (5 hours after administration), 71.8 mmHg; in test [4] (7 hours after administration) it was 71.7 mmHg.
`O=C(N[C@@H](Cc1c[nH]cn1)C(=O)N[C@@H](CC1CCCCC1)C(O)C(=O)OC1CCCCC1)C(CC(=O)N1CCOCC1)Cc1cccc2ccccc12` (mixture of isomers) [Compound E, (2RS, 3S)-3-{N-[2-(1-Naphthylmethyl)-3-(morpholinocarbonyl)propionyl]-L-histidyl}amino-4-cyclohexyl-2-hydroxybutyric acid cyclohexyl ester]: the figures for the IC50 in test [1] and in test [2] were 30 nM and 6.6 nM, respectively.
As for `O=C(N[C@@H](Cc1c[nH]cn1)C(=O)N[C@@H](CC1CCCCC1)C(O)C(=O)N1CCOCC1)C(CC(=O)N1CCOCC1)Cc1cccc2ccccc12` (mixture of isomers) [Compound F, 4-[(2RS, 3S)-3-{N-[2-(1-Naphthylmethyl)-3-(morpholinocarbonyl)propionyl]-L-histidyl}amino-4-cyclohexyl-2-hydroxybutyryl]morpholine], the IC50 in test [1] was 130 nM; in test [2] it was 370 nM.
On to `O=C(N[C@@H](Cc1c[nH]cn1)C(=O)N[C@@H](CC1CCCCC1)C(O)C(=O)OC(CF)CF)C(CC(=O)N1CCOCC1)Cc1cccc2ccccc12` (mixture of isomers) [Compound G, (2RS, 3S)-3-{N-[2-(1-Naphthylmethyl)-3-(morpholinocarbonyl)propionyl]-L-histidyl}amino-4-cyclohexyl-2-hydroxybutyric acid 1,3-difluoro-2-propyl ester], for which the figures for the IC50 in test [1] and in test [2] were 4.1 nM and 2.9 nM, respectively.
Consider `CC(C)OC(=O)[C@H](O)[C@H](CC1CCCCC1)NC(=O)[C@H](Cc1c[nH]cn1)NC(=O)C(CC(=O)N1CCOCC1)Cc1cccc2ccccc12` (stereo partly drawn) [Compound D, (2R, 3S)-3-{N-[2-(1-Naphthylmethyl)-3-(morpholinocarbonyl)propionyl]-L-histidyl}amino-4-cyclohexyl-2-hydroxybutyric acid isopropyl ester], for which the IC50 in test [1] was determined as 4.7 nM; in test [2], 2.4 nM.
